Experimental data as given in patent US8232273B2, “Heterocyclic compounds and methods of use” (Genentech, Inc., priority 2008, dated 2012).

Experiments:
[1] = target: T1, Bcl-xL (GST-Bcl-xL) (Homo sapiens, UniProt Q07817); experiment: AlphaScreen Bcl-xL binding assay, competition with biotinylated Bim peptide; design: made in house; conditions: values listed in the order of Table 1; read-out: Alphascreen results (IC50) against the Bcl-xL protein
Text: The measurement of competition of compounds of the invention with Bim26-mer for a Bcl-2 family protein binding site using an Alpha Screen Bcl-xL binding assay:
The BH3 proteins AlphaScreen™ assay was used to identify active small molecules Bcl-2 family protein screen, e.g., Bcl-xL, hmMcl-1 screen.
The beads come in close proximity when the protein and the peptides interact. Donor beads contain a photosensitiser that converts oxygen to an excited form of O2 at an excitation of 680 nm. Energy is transformed from the singlet oxygen and reacts with chemiluminescers on the acceptor bead, resulting in light emission at 520-620 nm. […] With this information, the IC50 of each compound was calculated
GST-Bcl-xL, GST-hmMcl-1 and biotinylated GST proteins were prepared in-house and were stored as stock solutions at −80° C. The biotinylated-Bak, and biotinylated-Bim peptides were purchased from Auspep and were stored as 500 μM stock solutions in 100% DMSO at −80° C. […] DMSO was purchased from AnalaR.
Compounds of the invention were prepared as 10 mM stocks with 100% DMSO on the day prior to performing the assay. […] To achieve a final compound concentration of 1 μM, in a separate matrical plate, 28 μL of 100% DMSO and 2 μL of 10 mM compound was added to a well, mixed well, 2 μL of this solution was taken and added to 38 μL of 100% DMSO. 20 μL of this solution was added to the test matrical plate. Several control compounds were included in the test plates. For the control wells 15 μL 100% DMSO only was added to the appropriate wells of each plate. The compound plates were then serially diluted 2 fold using the MiniTrak. Once titrations were complete, the compound plate was immediately covered with a foil seal to prevent evaporation.
The assay and bead buffers were prepared fresh. Each titrated compound plate was assayed in duplicate. The following volumes were sufficient to run 12 Proxiplates (4 assay plates run in duplicate in each of Bclxl, hmMcl and counter assays)
Protein and Peptide Preparation; and Assay Performance • 1. The assay and bead buffers were used to prepare the acceptor and donor solutions. ALPHASCREEN™ beads are light sensitive and therefore prepared in a darkened room. 2.5 μL of beads were added per 1 mL of buffer. • 2. The volume of protein or peptide to add was calculated using the following formula:
V2=Volume of stock protein/Peptide to add to Acceptor/Donor solution • 3. The assay components were prepared as separate Acceptor and Donor Solutions. The Acceptor Solution contained Acceptor beads and target protein, while the Donor Solution contained Donor beads and biotinylated peptide.
• 4. After the solutions were prepared, they were left to incubate for 30 minutes at room temperature to allow the beads to bind to the protein and the peptide. • 5. 50 μL of Bcl-xL solution, 50 μL of hmMcl-1 solution and 50 μL of biotinylated-GST were added into separate deep wells on an assay plate. A control 50 μL Assay/Bead buffer was added separate well plates (no protein). • 6. 50 μL of Bim solution and 50 μL of Bak solution were added into separate deep well plates. • 7. Transfer 0.3 μL it of sample from the compound plate into each assay plate. • 8. Incubated for 30 mins at RT, then add 5 μL of the Donor solution. After addition of the Donor solution, tapped plates gently and sealed individually with adhesive film. • 9.
The percent inhibition was calculated using the following equation:
[formula] • x=RFU obtained after compound treatment • μ^−=RFU obtained for the negative controls (no protein controls) • μ^+=RFU obtained for the positive controls (DMSO vehicle controls)

[2] = target: T1, Bcl-xL (GST-Bcl-xL); experiment: TR-FRET binding assay, competition with F-Bak for the Bcl-xL binding site; conditions: values listed in the order of Table 1, read-out: TR-FRET assay results (Ki), Bcl-xL
Method: The measurement of competition of compounds of the invention with F-Bak for a Bcl-2 family protein (Bcl-xL) binding site using a Time Resolved Fluorescence Resonance Energy Transfer (TR-FRET) binding assay:
Test compounds were serially diluted in DMSO starting at 50 μM (2× starting concentration; 10% DMSO) and 10 μt transferred into a 384-well plate.
The samples are then mixed on a shaker for 1 minute then incubated for an additional 2 hours at room temperature. For each assay plate, a probe/antibody and protein/antibody/probe mixture were included as a negative and a positive control, respectively. Fluorescence was measured on the Envision (Perkin Elmer) using a 340/35 nm excitation filter and 520/525 (F-Bak) and 495/510 nm (Tb-labeled anti-his antibody) emission filters. Dissociation constants (Ki) were determined using Wang's equation (see, Wang, Z. X. An exact mathematical expression for describing competitive binding of two different ligands to a protein molecule. FEBS Lett. 1995 360:111-114). The TR-FRET assay can be performed in the presence of varying concentrations of human serum (HS) or fetal bovine serum (FBS).

T1 sequence (Q07817 whole entry, species assumed): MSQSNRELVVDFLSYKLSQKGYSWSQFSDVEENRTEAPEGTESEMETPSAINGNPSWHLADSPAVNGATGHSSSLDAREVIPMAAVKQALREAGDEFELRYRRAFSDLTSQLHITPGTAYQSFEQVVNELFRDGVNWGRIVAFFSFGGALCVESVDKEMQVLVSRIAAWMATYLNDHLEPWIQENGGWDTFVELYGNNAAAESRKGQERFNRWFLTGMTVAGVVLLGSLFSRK

Structure (SMILES) | IC50 [1] [nM] | Ki [2] [nM]
Cc1cc(N2CCN(c3nc4ccccc4s3)CC2)ccc1OCCCc1sc(N2CCc3cccc(C(=O)Nc4nc5ccccc5s4)c3C2)nc1C(=O)O [Example 29, 5-(3-(4-(4-(benzo[d]thiazol-2-yl)piperazin-1-yl)-2-methylphenoxy)propyl)-2-(8-(benzo[d]thiazol-2-ylcarbamoyl)-3,4-dihydroisoquinolin-2(1H)-yl)thiazole-4-carboxylic acid] | 117 | 23
O=C(Nc1nc2ccccc2s1)c1cccc2c1CN(c1nc(C(=O)O)c(CCOc3cccc(-n4ncc5cncnc54)c3)s1)CC2 [Example 50, 5-(2-(3-(1H-pyrazolo[3,4-d]pyrimidin-1-yl)phenoxy)ethyl)-2-(8-(benzo[d]thiazol-2-ylcarbamoyl)-3,4-dihydroisoquinolin-2(1H)-yl)thiazole-4-carboxylic acid] | 10 | 2
CCCN(CCc1ccc(OCCCc2sc(N3CCc4cccc(C(=O)Nc5nc6ccccc6s5)c4C3)nc2C(=O)O)cc1)CC1CCCc2c1ccc(OC)c2OC (stereo not shown) [Example 28, 2-(8-(benzo[d]thiazol-2-ylcarbamoyl)-3,4-dihydroisoquinolin-2(1H)-yl)-5-(3-(4-(2-(((5,6-dimethoxy-1,2,3,4-tetrahydronaphthalen-1-yl)methyl)(propyl)amino)ethyl)phenoxy)propyl)thiazole-4-carboxylic acid] | 8 | 1
CN1CCN(c2cc(F)c(OCCCc3sc(N4CCc5cccc(C(=O)Nc6nc7ccccc7s6)c5C4)nc3C(=O)O)cc2F)CC1 [Example 108, 2-(8-(benzo[d]thiazol-2-ylcarbamoyl)-3,4-dihydroisoquinolin-2(1H)-yl)-5-(3-(2,5-difluoro-4-(4-methylpiperazin-1-yl)phenoxy)propyl)thiazole-4-carboxylic acid] | 0.4 | 0.02
CN(C)CC#Cc1cc(F)c(OCCCc2sc(N3CCc4cccc(C(=O)Nc5nc6ccccc6s5)c4C3)nc2C(=O)O)cc1F [Example 118, 2-(8-(benzo[d]thiazol-2-ylcarbamoyl)-3,4-dihydroisoquinolin-2(1H)-yl)-5-(3-(4-(3-(dimethylamino)prop-1-ynyl)-2,5-difluorophenoxy)propyl)thiazole-4-carboxylic acid] | 0.3 | 0.01
Nc1nc2ccccc2n1-c1ccc(OCCCc2sc(N3CCc4cccc(C(=O)Nc5nc6ccccc6s5)c4C3)nc2C(=O)O)cc1 [Example 77, 5-(3-(4-(2-amino-1H-benzo[d]imidazol-1-yl)phenoxy)propyl)-2-(8-(benzo[d]thiazol-2-ylcarbamoyl)-3,4-dihydroisoquinolin-2(1H)-yl)thiazole-4-carboxylic acid] | 34 | 7
O=C(CSc1ccccc1)Nc1ccc(N2CCc3cccc(C(=O)Nc4nc5ccccc5s4)c3C2)nc1C(=O)O [Compound 128, 6-(8-(benzo[d]thiazol-2-ylcarbamoyl)-3,4-dihydroisoquinolin-2(1H)-yl)-3-(2-(phenylthio)acetamido)picolinic acid] | 340 | 
O=C(O)c1coc(N2CCc3cccc(C(=O)Nc4nc5ccccc5s4)c3C2)n1 [Compound 124, 2-(8-(benzo[d]thiazol-2-ylcarbamoyl)-3,4-dihydroisoquinolin-2(1H)-yl)oxazole-4-carboxylic acid] | 865 | 
O=C(Nc1nc2ccccc2s1)c1cccc2c1CN(c1ccc(CCCc3ccccc3)c(C(=O)O)n1)CC2 [Compound 137, 6-(8-(benzo[d]thiazol-2-ylcarbamoyl)-3,4-dihydroisoquinolin-2(1H)-yl)-3-(3-phenylpropyl)picolinic acid] | 30 | 
O=C(Nc1nc2ccccc2s1)c1cccc2c1CN(c1ccc(/C=C/Cc3ccccc3)c(C(=O)O)n1)CC2 [Compound 138, (E)-6-(8-(benzo[d]thiazol-2-ylcarbamoyl)-3,4-dihydroisoquinolin-2(1H)-yl)-3-(3-phenylprop-1-enyl)picolinic acid] | 3 | 
O=C(O)c1ccnc(N2CCc3cccc(C(=O)Nc4nc5ccccc5s4)c3C2)n1 [Compound 122, 2-(8-(benzo[d]thiazol-2-ylcarbamoyl)-3,4-dihydroisoquinolin-2(1H)-yl)pyrimidine-4-carboxylic acid] | 7500 | 
O=C(Nc1nc2ccccc2s1)c1cccc2c1CN(c1ncc(Cl)c(C(=O)O)n1)CC2 [Compound 123, 2-(8-(benzo[d]thiazol-2-ylcarbamoyl)-3,4-dihydroisoquinolin-2(1H)-yl)-5-chloropyrimidine-4-carboxylic acid] | 4000 | 
COc1ccc(COc2ccc(N3CCc4cccc(C(=O)Nc5nc6ccccc6s5)c4C3)nc2C(=O)O)cc1 [Compound 136, 6-(8-(benzo[d]thiazol-2-ylcarbamoyl)-3,4-dihydroisoquinolin-2(1H)-yl)-3-(4-methoxybenzyloxy)picolinic acid] | 19000 | 
O=C(Nc1nc2ccccc2s1)c1cccc2c1CN(c1ccc(/C=C/c3ccccc3)c(C(=O)O)n1)CC2 [Compound 135, (E)-6-(8-(benzo[d]thiazol-2-ylcarbamoyl)-3,4-dihydroisoquinolin-2(1H)-yl)-3-styrylpicolinic acid] | 92.4 | 
O=C(Nc1nc2ccccc2s1)c1cccc2c1CN(c1ccc(CCCOc3ccc(OCCN4CCCC4)cc3)c(C(=O)O)n1)CC2 [Example 106, 6-(8-(benzo[d]thiazol-2-ylcarbamoyl)-3,4-dihydroisoquinolin-2(1H)-yl)-3-(3-(4-(2-(pyrrolidin-1-yl)ethoxy)phenoxy)propyl)picolinic acid] | 1.1 | 
O=C(Nc1nc2ccccc2s1)c1cccc2c1CN(c1nc(C(=O)O)c(CCCN3CCOCC3)s1)CC2 [Example 19, 2-(8-(benzo[d]thiazol-2-ylcarbamoyl)-3,4-dihydroisoquinolin-2(1H)-yl)-5-(3-morpholinopropyl)thiazole-4-carboxylic acid] |  | 9
O=C(Nc1nc2ccccc2s1)c1cccc2c1CN(c1nc(C(=O)O)c(CCc3ccc4cc(OCCCN5CCOCC5)ccc4c3)s1)CC2 [Example 111, 2-(8-(benzo[d]thiazol-2-ylcarbamoyl)-3,4-dihydroisoquinolin-2(1H)-yl)-5-(2-(6-(3-morpholinopropoxy)naphthalen-2-yl)ethyl)thiazole-4-carboxylic acid] |  | 0.02
O=C(Nc1nc2ccccc2s1)c1cccc2c1CN(c1nc(C(=O)O)c(CCCOc3ccc(-n4cncn4)cc3)s1)CC2 [Example 67, 5-(3-(4-(1H-1,2,4-triazol-1-yl)phenoxy)propyl)-2-(8-(benzo[d]thiazol-2-ylcarbamoyl)-3,4-dihydroisoquinolin-2(1H)-yl)thiazole-4-carboxylic acid] |  | 0.05
N#Cc1c(-c2cccc(OCC#Cc3sc(N4CCc5cccc(C(=O)Nc6nc7ccccc7s6)c5C4)nc3C(=O)O)c2)n[nH]c1N [Example 36, 5-(3-(3-(5-amino-4-cyano-1H-pyrazol-3-yl)phenoxy)prop-1-ynyl)-2-(8-(benzo[d]thiazol-2-ylcarbamoyl)-3,4-dihydroisoquinolin-2(1H)-yl)thiazole-4-carboxylic acid] |  | 5
